Key:
[1] = test system: Mus musculus; experiment: Tested in vivo for inhibition ofTCR stimulated (alpha-CD3 mAb) IL-2 production in mice after oral dosing; type: functional
[2] = molecular target: T1, Vascular endothelial growth factor receptor 2 (Homo sapiens, UniProt P35968); experiment: Inhibition of human VEGF-receptor 2 (kdr) kinase.
[3] = test system: Mus musculus; experiment: Tested in vivo for inhibition ofTCR stimulated (alpha-CD3 mAb) IL-2 production in mice after oral dosing for 8 hr; type: functional; set-up: concentration or dose not given beside the values
[4] = species on record: Homo sapiens; experiment: Inhibition of alpha-CD3 mAb induced IL-2 production in human whole blood; type: functional, organism-based
[5] = test system: Mus musculus; experiment: Tested in vivo for inhibition ofTCR stimulated (alpha-CD3 mAb) IL-2 production in mice after oral dosing for 18 hr; type: functional; set-up: concentration or dose not given beside the values
[6] = molecular target: T1, Vascular endothelial growth factor receptor 2; experiment: Inhibition of Vascular endothelial growth factor receptor 2
[7] = species on record: Rattus norvegicus; experiment: Compound was evaluated for pharmacokinetic parameter maximum plasma concentration; type: ADME, organism-based; settings: in vivo
[8] = Compound was evaluated for pharmacokinetic parameter volume of distribution; type: ADME, organism-based; settings: rat, in vivo
[9] = Compound was evaluated for pharmacokinetic parameter percent bioavailability at 18 h; type: ADME, organism-based; settings: rat, in vivo
[10] = molecular target: Tyrosine-protein kinase Lck (Homo sapiens, UniProt P06239); experiment: Inhibition of human p56 Lck tyrosine kinase
[11] = Compound was evaluated for pharmacokinetic parameter percent bioavailability at 8 h; type: ADME, organism-based; settings: rat, in vivo
[12] = test system: Rattus norvegicus; experiment: In vivo clearance after 5 mg/kg dose; type: ADME, organism-based; set-up: dose 5 mg/kg
[13] = Compound was evaluated for pharmacokinetic parameter maximum time period; type: ADME, organism-based; settings: rat, in vivo
[14] = molecular target: Angiopoietin-1 receptor (Homo sapiens, UniProt Q02763); experiment: Inhibition of TIE-2 kinase
[15] = molecular target: Proto-oncogene tyrosine-protein kinase Src (Homo sapiens, UniProt P12931); experiment: Inhibition of Src protein tyrosine kinase
Proto-oncogene tyrosine-protein kinase Src, sequence (P12931 2-536 limits assumed): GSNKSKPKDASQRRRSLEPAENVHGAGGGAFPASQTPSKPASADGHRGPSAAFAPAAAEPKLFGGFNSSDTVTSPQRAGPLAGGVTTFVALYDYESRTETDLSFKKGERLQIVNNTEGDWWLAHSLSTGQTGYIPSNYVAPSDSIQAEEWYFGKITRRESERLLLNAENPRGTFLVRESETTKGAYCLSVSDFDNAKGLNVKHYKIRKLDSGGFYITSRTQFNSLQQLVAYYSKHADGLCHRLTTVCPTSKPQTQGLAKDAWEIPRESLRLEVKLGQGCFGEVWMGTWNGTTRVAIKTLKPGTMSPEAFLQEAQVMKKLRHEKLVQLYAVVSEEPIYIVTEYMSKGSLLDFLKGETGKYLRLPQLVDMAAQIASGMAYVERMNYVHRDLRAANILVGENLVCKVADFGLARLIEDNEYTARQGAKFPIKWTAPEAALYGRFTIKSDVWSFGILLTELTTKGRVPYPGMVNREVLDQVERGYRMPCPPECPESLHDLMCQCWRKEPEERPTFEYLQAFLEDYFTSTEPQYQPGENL

T1 sequence (P35968 whole entry): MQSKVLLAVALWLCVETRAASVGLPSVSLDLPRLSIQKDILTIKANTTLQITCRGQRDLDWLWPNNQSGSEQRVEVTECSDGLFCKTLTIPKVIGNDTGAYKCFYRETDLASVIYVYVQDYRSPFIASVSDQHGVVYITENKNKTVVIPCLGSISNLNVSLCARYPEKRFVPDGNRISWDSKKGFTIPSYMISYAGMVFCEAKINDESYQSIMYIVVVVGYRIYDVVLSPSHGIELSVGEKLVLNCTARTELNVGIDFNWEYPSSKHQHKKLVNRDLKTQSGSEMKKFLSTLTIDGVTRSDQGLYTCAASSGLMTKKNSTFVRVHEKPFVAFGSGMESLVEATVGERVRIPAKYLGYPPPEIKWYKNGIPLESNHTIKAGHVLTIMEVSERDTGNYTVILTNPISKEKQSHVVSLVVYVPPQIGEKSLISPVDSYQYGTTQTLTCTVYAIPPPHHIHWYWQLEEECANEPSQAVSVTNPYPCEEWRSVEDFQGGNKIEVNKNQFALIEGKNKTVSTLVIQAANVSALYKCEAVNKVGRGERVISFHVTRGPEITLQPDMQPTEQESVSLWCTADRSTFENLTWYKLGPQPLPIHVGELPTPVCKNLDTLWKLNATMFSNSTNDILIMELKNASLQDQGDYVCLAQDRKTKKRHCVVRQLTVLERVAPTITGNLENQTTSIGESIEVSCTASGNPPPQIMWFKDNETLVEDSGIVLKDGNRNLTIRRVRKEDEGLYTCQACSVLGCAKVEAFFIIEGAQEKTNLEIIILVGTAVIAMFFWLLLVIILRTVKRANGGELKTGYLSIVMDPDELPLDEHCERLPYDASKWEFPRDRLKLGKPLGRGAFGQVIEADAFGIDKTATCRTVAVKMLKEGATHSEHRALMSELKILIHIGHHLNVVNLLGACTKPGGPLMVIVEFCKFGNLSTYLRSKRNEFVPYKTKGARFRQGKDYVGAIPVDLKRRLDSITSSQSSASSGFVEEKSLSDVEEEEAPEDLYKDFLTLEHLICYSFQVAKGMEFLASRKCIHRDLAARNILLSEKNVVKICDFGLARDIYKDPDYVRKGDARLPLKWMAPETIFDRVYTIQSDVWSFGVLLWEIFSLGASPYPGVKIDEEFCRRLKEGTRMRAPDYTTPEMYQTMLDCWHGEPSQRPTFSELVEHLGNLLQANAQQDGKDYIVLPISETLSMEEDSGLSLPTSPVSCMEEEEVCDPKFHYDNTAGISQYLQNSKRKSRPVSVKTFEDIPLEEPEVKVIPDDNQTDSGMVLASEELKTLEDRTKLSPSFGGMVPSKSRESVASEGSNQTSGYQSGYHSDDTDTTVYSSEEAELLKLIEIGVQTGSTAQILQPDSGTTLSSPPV
Tyrosine-protein kinase Lck, sequence (P06239 whole entry): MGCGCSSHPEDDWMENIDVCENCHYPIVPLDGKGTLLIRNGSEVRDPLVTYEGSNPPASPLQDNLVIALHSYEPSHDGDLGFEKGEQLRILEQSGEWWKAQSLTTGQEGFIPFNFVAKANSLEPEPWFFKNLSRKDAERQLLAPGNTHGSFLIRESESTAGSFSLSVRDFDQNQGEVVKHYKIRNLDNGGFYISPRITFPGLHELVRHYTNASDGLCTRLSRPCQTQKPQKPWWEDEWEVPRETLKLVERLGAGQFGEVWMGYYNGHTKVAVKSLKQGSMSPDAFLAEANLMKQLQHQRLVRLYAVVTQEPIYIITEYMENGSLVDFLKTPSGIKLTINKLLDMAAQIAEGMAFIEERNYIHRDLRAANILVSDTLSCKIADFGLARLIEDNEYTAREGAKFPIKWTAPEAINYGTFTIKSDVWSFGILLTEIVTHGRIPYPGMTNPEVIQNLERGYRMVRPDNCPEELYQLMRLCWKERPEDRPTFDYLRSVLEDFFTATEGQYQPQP
Angiopoietin-1 receptor, sequence (Q02763 whole entry): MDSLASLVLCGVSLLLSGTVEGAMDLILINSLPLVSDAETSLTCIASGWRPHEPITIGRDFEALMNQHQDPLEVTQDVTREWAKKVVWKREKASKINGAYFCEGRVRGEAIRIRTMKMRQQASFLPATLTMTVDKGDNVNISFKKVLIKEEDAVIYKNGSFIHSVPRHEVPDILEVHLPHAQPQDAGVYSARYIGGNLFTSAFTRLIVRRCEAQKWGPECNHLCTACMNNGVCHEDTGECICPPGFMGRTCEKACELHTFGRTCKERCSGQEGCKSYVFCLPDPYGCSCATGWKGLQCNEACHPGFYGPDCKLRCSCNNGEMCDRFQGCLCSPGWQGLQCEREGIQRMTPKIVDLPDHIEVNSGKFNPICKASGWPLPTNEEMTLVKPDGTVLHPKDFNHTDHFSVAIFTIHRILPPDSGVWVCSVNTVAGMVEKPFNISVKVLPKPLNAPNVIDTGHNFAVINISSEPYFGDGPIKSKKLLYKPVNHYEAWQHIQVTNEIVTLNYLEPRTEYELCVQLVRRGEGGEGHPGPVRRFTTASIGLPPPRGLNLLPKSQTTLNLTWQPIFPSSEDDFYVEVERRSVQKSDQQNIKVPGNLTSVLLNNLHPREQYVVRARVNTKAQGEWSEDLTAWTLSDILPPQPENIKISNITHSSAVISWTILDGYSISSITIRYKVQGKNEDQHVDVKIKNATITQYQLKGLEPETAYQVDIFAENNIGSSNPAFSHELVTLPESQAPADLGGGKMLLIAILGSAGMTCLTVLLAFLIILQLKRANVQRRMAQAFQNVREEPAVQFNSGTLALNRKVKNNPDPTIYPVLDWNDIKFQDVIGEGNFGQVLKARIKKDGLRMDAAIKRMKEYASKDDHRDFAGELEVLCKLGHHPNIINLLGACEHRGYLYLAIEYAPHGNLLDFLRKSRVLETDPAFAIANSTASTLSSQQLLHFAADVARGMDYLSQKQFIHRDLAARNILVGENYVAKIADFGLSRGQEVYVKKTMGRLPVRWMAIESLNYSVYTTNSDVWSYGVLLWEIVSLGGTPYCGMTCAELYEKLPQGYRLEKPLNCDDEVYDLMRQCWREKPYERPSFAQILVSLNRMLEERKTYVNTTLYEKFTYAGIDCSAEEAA

Row | Structure (SMILES) | ED50 [1] | ED90 [1] | IC50 [2] | Inhibition [3] | IC50 [4] | Inhibition [5] | other results
1 | COc1cc(-c2nn([C@H]3CC[C@H](N4CCN(C)CC4)CC3)c3ncnc(N)c23)ccc1NC(=O)CC(C)(C)c1ccccc1 | 2 mg/kg | 12.5 mg/kg | 34600 nM | 98% | 8 nM | 22% | 
2 | COc1cc(-c2nn([C@H]3CC[C@H](N4CCN(C)CC4)CC3)c3ncnc(N)c23)ccc1NC(=O)CCc1ccccc1 | 5 mg/kg | 30 mg/kg | > 50000 nM | 63% | 38 nM | <10% | 
3 | COc1cc(-c2nn([C@H]3CC[C@H](N4CCN(C)CC4)CC3)c3ncnc(N)c23)ccc1NC(=O)c1ccccc1 | 9 mg/kg | 23 mg/kg | > 50000 nM | 37% | 50 nM | <10% | 
4 | COc1cc(-c2nn([C@H]3CC[C@H](N4CCN(C)CC4)CC3)c3ncnc(N)c23)ccc1NS(=O)(=O)c1ccccc1 |  |  | > 50000 nM |  |  |  | 
5 | COc1cc(Cc2nn([C@H]3CC[C@H](N4CCN(C)CC4)CC3)c3ncnc(N)c23)ccc1NC(=O)[C@@H]1C[C@H]1c1ccccc1 |  |  | > 50000 nM |  |  |  | 
6 | COc1cc(-c2nn([C@H]3CC[C@H](N4CCN(C)CC4)CC3)c3ncnc(N)c23)ccc1NC(=O)C(C)(C)Cc1ccccc1 |  |  | > 50000 nM |  |  |  | 
7 | COc1cc(-c2nn([C@H]3CC[C@H](N4CCN(C)CC4)CC3)c3ncnc(N)c23)ccc1NC(=O)c1cc2ccccc2o1 | 8.5 mg/kg | 12.5 mg/kg | > 50000 nM | 48% | 6 nM | <10% | 
8 | CN1CCN([C@H]2CC[C@H](n3nc(-c4ccc(Oc5ccccc5)cc4)c4c(N)ncnc43)CC2)CC1 | 1.5 mg/kg | 6 mg/kg |  | 84% |  | 49% | IC50 [6]: 5320 nM; Cmax [7]: 0.62 uM l-1; Vd [8]: 9.6 L/kg; bioavailability [9]: 69%; IC50 [10]: 40 nM; half-life [11]: 5.2 h; Clp [12]: 20 mL/min/kg; Tmax [13]: 1.5 h
9 | CN1CCN([C@H]2CC[C@H](n3cc(-c4ccc(Oc5ccccc5)cc4)c4c(N)ncnc43)CC2)CC1 | 2.5 mg/kg |  |  |  |  |  | IC50 [14]: 250 nM; IC50 [15]: 42 nM; IC50 [10]: 15 nM
10 | COc1cc(-c2nn([C@H]3CC[C@H](N4CCN(C)CC4)CC3)c3ncnc(N)c23)ccc1NCc1ccccc1 |  |  |  |  |  |  | IC50 [6]: > 50000 nM; IC50 [10]: 55 nM
11 | COc1cc(-c2nn([C@H]3CC[C@H](N4CCN(C)CC4)CC3)c3ncnc(N)c23)ccc1NC(=O)Nc1ccccc1 |  |  | 263 nM |  |  |  | 
12 | CN1CCN([C@H]2CC[C@H](n3nc(-c4ccc(NCc5cc6ccccc6[nH]5)cc4)c4c(N)ncnc43)CC2)CC1 |  |  | 435 nM |  |  |  | 
13 | CN1CCN([C@H]2CC[C@H](n3nc(-c4ccc(C(=O)c5ccccc5)cc4)c4c(N)ncnc43)CC2)CC1 |  |  | > 50000 nM |  |  |  | 
14 | CN1CCN([C@H]2CC[C@H](n3nc(-c4ccc(Nc5ccccc5)cc4)c4c(N)ncnc43)CC2)CC1 | 2.5 mg/kg | 10.7 mg/kg | 3810 nM | 95% | 135 nM | <10% | 
15 | COc1cc(-c2nn([C@H]3CC[C@H](N4CCN(C)CC4)CC3)c3ncnc(N)c23)ccc1NC(=O)OCc1ccccc1 | 3 mg/kg | 14 mg/kg | 34200 nM | 51% | 2 nM | 14% | 

From ChEMBL document CHEMBL1135159, “Pyrazolo[3,4-d]pyrimidines containing an extended 3-substituent as potent inhibitors of Lck -- a selectivity insight” (Bioorg Med Chem Lett, 2002)
